For assay [1], the system named is U-937. Nature of the assay: Cytotoxicity against human U937 cells after 48 hrs by WST1 test. In kind it is functional, cell-based. As to conditions: U-937, 48 h. A general note: Formazan colour is commonly taken as a measure of viable cells.
Assay [2] concerns U-937. Nature of the assay: Induction of apoptosis in human U937 cells assessed as total LDH activity at IC50 by spectrophotometric method. It counts as functional.
The test system of a further assay is HepG2. Nature of the assay: Cytotoxicity against human HepG2 cells after 48 hrs by acid phosphatase method. It counts as functional, cell-based. As to conditions: HepG2, 48 h.
Another assay relates to MCF7. Put plainly: Cytotoxicity against human MCF7 cells after 48 hrs by acid phosphatase method. In kind it is functional, cell-based. To be noted: MCF7, 48 h.
In assay [3] the test system is U-937. Nature of the assay: Cytotoxicity against human U937 cells assessed as reduction of proliferation at 0.5 uM after 24 hrs. In kind it is functional, cell-based.
Assay [4] relates to U-937. Nature of the assay: Induction of apoptosis in human U937 cells assessed as hypodiploid region at IC50 measured by propidium iodide incorporation by flow cytometry. It counts as functional. On the technique in general: A flow cytometer gives signals particle by particle.
Assay [5] has as its system U-937. Put plainly: Cytotoxicity against human U937 cells assessed as reduction of proliferation at 0.1 uM after 48 hrs. It counts as functional, cell-based.
Assay [6] deals with U-937. Nature of the assay: Cytotoxicity against human U937 cells assessed as reduction of proliferation at 0.1 uM after 24 hrs. In kind it is functional, cell-based.

Activity calls are given as the source filed them. No cut-off for these calls is given here. Where only a bound is given, the exact number is not on record here.

Turning to `C[C@H](CC[C@@]1(O)O[C@H]2C[C@H]3[C@@H]4CC[C@H]5C[C@@H](O[C@@H]6O[C@H](CO)[C@H](O[C@@H]7O[C@H](CO)[C@@H](O)[C@H](O[C@@H]8OC[C@@H](O)[C@H](O)[C@H]8O)[C@H]7O[C@@H]7O[C@H](CO)[C@H](O)[C@H](O)[C@H]7O)[C@H](O)[C@H]6O)CC[C@]5(C)[C@H]4CC[C@]3(C)[C@H]2[C@@H]1C)CO[C@@H]1O[C@H](CO)[C@@H](O)[C@H](O)[C@H]1O` [PARVISPINOSIDE B], the IC50 with U-937 [1] is 500 nM; with HepG2, greater than 100 µM; in the assay on MCF7 it was 94 µM. For the same molecule, the results for the Activity in the assay on U-937 [2] and with U-937 [4] were 27% and 26%, respectively. The result in the assay on U-937 [3] and in the assay with U-937 [5] was Active.
As for `CC1=CC(=O)CC(C)(C)[C@@]1(O)/C=C/C(O)CO[C@@H]1O[C@H](CO)[C@@H](O)[C@H](O)[C@H]1O` (stereo not given in full) [PARVISPINOSIDE C], the IC50 was 15000 nM with U-937 [1], greater than 100 µM with HepG2 and 80 µM with MCF7.
On to `C[C@H](CC[C@@]1(O)O[C@H]2C[C@H]3[C@@H]4CC[C@H]5C[C@@H](O[C@@H]6O[C@H](CO)[C@H](O[C@@H]7O[C@H](CO)[C@@H](O)[C@H](O[C@@H]8OC[C@@H](O)[C@H](O)[C@H]8O)[C@H]7O[C@@H]7O[C@H](CO)[C@H](O)[C@H](O)[C@H]7O)[C@H](O)[C@H]6O)[C@H](O)C[C@]5(C)[C@H]4CC[C@]3(C)[C@H]2[C@@H]1C)CO[C@@H]1O[C@H](CO)[C@@H](O)[C@H](O)[C@H]1O` [PARVISPINOSIDE A], for which the IC50 in the assay on U-937 [1] is 30000 nM; in the assay on HepG2, greater than 100 µM; in the assay with MCF7, greater than 100 µM. The Activity in the assay on U-937 [2] was 28%; in the assay on U-937 [4], 32%.
`CO[C@]1(CC[C@@H](C)CO[C@@H]2O[C@H](CO)[C@@H](O)[C@H](O)[C@H]2O)O[C@H]2C[C@H]3[C@@H]4CC[C@H]5C[C@@H](O[C@@H]6O[C@H](CO)[C@H](O[C@@H]7O[C@H](CO)[C@@H](O)[C@H](O[C@@H]8OC[C@@H](O)[C@H](O)[C@H]8O)[C@H]7O[C@@H]7O[C@H](CO)[C@H](O)[C@H](O)[C@H]7O)[C@H](O)[C@H]6O)CC[C@]5(C)[C@H]4CC[C@]3(C)[C@H]2[C@@H]1C` [22-O-METHYLPARVISPINOSIDE B]: the figures for the IC50 in the assay on U-937 [1], with HepG2 and in the assay on MCF7 were 2000 nM, 30 µM and 40 µM, respectively. Further, the Activity with U-937 [2] is 50%; in the assay on U-937 [4] it was 3%.
Regarding `Oc1ccc(/C=C/c2cc(O)cc(O)c2)cc1` [RESVERATROL], the IC50 with U-937 [1] was determined as 17000 nM; with HepG2 it was 50 µM; in the assay with MCF7 it was 100 µM.
As to `CO[C@]1(CC[C@@H](C)CO[C@@H]2O[C@H](CO)[C@@H](O)[C@H](O)[C@H]2O)O[C@H]2C[C@H]3[C@@H]4CC[C@H]5C[C@@H](O[C@@H]6O[C@H](CO)[C@H](O[C@@H]7O[C@H](CO)[C@@H](O)[C@H](O[C@@H]8OC[C@@H](O)[C@H](O)[C@H]8O)[C@H]7O[C@@H]7O[C@H](CO)[C@H](O)[C@H](O)[C@H]7O)[C@H](O)[C@H]6O)[C@H](O)C[C@]5(C)[C@H]4CC[C@]3(C)[C@H]2[C@@H]1C` [22-O-METHYLPARVISPINOSIDE A], the 50% inhibitory concentration (IC50) was 1000 nM in the assay with U-937 [1], 30 µM with HepG2 and 50 µM in the assay on MCF7. Also, the Activity in the assay on U-937 [2] was determined as 38%; in the assay with U-937 [4], 9%.
Regarding `C[C@@H]1CC[C@@]2(OC1)O[C@H]1C[C@H]3[C@@H]4CC[C@H]5C[C@@H](O[C@@H]6O[C@H](CO)[C@H](O[C@@H]7O[C@H](CO)[C@@H](O)[C@H](O[C@@H]8OC[C@@H](O)[C@H](O)[C@H]8O)[C@H]7O[C@@H]7O[C@H](CO)[C@H](O)[C@H](O)[C@H]7O)[C@H](O)[C@H]6O)CC[C@]5(C)[C@H]4CC[C@]3(C)[C@H]1[C@@H]2C` [GITONIN], the values for the IC50 in the assay with U-937 [1], with HepG2 and in the assay on MCF7 were 100 nM, 3 µM and 3 µM, respectively. Further, the Activity with U-937 [2] is reported as 25%; with U-937 [4] it was 20%. In addition, the outcome in the assay with U-937 [6] and in the assay with U-937 [5] was Active.

In general, IC50 refers to the concentration that inhibits the measured activity by half.

(Values after ChEMBL document CHEMBL1151273, “Cytotoxic furostanol saponins and a megastigmane glucoside from tribulus parvispinus” (J Nat Prod, 2005).)
